The subject of assay [1] is Mus musculus. Briefly: Antiinflammatory activity in sheep red blood cells (SRBCs)-induced delayed hypersensitivity male CD-1/ICR mouse model at 30 mg/kg administered once daily for 7 days. The assay is classed as functional, organism-based. The note with it: time 7.0 day.
The target of assay [2] is T1, RNA 5'-monophosphate methyltransferase (Homo sapiens) (UniProt Q7Z5W3).
T1 sequence (whole entry): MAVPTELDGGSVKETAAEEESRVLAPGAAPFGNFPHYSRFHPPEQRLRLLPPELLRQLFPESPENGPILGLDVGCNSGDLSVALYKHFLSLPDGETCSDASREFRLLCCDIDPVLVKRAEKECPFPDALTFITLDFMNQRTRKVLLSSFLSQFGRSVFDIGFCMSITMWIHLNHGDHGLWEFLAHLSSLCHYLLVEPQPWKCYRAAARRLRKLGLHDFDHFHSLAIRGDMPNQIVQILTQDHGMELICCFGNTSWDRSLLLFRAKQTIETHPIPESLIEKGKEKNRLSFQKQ
Put plainly: Inhibition of BCDIN3D in activated CD4+ T cells isolated from human PBMC stimulated with anti-CD3/CD28 and restimulated with PMA and ionomycin for 4 hrs in the presence of brefeldin A assessed as reduction in IFN-gamma production at 100 to 500 nM. In kind it is cell-based. The note with it: T cell, dose 100-500 nM.

The target in assay [3] is T2, RNA 5'-monophosphate methyltransferase (Homo sapiens, UniProt Q7Z5W3).
T2 sequence (Q7Z5W3 whole entry): T1 sequence (whole entry)
Briefly: Inhibition of BCDIN3D (unknown origin) using mini-helix and SAM as substrate incubated for 1 hr by RapidFire High Throughput mass spectrometry.

Assay [4] addresses T2, RNA 5'-monophosphate methyltransferase. Briefly: Binding affinity towards N-terminal ePL-tagged BCDIN3D (unknown origin) transfected in human A549 cells preincubated for 1 hr and measured by InCellPulse thermal stability assay. In kind it is cell-based.

These results are taken from ChEMBL document CHEMBL5393441, “Bicyclic heterocyclic compounds as inhibitors ofbcdin3d activity” (2022).

Each structure is given as a SMILES string. Active and inactive are the calls of the source. The rule behind the calls is not given here.

Turning to `Cn1ncc2c(NC(C)(C)C)nc(NC[C@H](N)c3ccccc3)nc21`, the result in assay [1] was Active. Moreover, in assay [2], the inhibition entry is “Active”.

With `Cn1ncc2c(Nc3ccc(C(F)(F)F)nc3)nc(NC[C@@](C)(N)c3ccccc3)nc21`, the IC50 in assay [3] was determined as 38.1 nM; in assay [4], 0.133 µM.

For the compound `Cn1ncc2c(NCC3CC(C(F)(F)F)C3)nc(NC[C@H](N)c3ccccc3)nc21` (stereo partly drawn), the figures for the concentration for half-maximal inhibition (IC50) in assay [3] and in assay [4] were 17 nM and 0.034 µM, respectively.

As for `Cn1ncc2c(Nc3ccc(C(F)(F)F)cc3)nc(NCC3(N)COC3)nc21`, in assay [4], the IC50 came to 6.67 µM.

For the compound `Cc1cc(Nc2nc(NCC(N)CF)nc3c2cnn3C)ccc1Cl` (stereo not drawn), the values for the concentration for half-maximal inhibition (IC50) in assay [3] and in assay [4] were 6170 nM and 5.5 µM, respectively.

In the case of `Cn1ncc2c(Nc3ccc(Cl)cc3)nc(NC[C@H](N)c3ccccc3)nc21`, the result in assay [1] was Active. Besides, in assay [2], the inhibition result is “Active”.

In the case of `Cn1ncc2c(NC3CCC(F)(F)C3)nc(NC[C@H](N)c3ccccc3)nc21` (stereo partly drawn), the IC50 in assay [3] came out at 450 nM; in assay [4], 0.58 µM.

As to `CNc1nc(NC[C@](C)(N)c2ccccc2)nc2c1cnn2C`, the half-maximal inhibitory concentration (IC50) in assay [3] was 7650 nM; in assay [4], 10.8 µM.

Consider `Cc1ccc(CNc2nc(NCCN)nc3c2cnn3C)cc1Cl`, for which the figures for the IC50 in assay [3] and in assay [4] were 1650 nM and 6.46 µM, respectively.

On to `Cn1ncc2c(NC34CC(C3)C4)nc(NCC(N)c3ccccc3)nc21` (stereo not drawn), for which the figures for the concentration for half-maximal inhibition (IC50) in assay [3] and in assay [4] were 189 nM and 0.889 µM, respectively.

Regarding `Cn1ncc2c(Nc3cc(F)cc(F)c3)nc(NCC3(N)CC3)nc21`, the figures for the IC50 in assay [3] and in assay [4] were 1000 nM and 4.65 µM, respectively.

In the case of `COc1cc(Nc2nc(NCC3(N)CC3)nc3c2cnn3C)cc(OC)c1`, the concentration for half-maximal inhibition (IC50) stood at 1260 nM in assay [3] and 2.99 µM in assay [4].

Broadly, the IC50 is the point on the concentration scale where inhibition reaches its midpoint. Lower therefore signals greater potency in that assay.
